# Reference: patent publication US4839366A, “Methylthioquinolyl guanidine derivative, process of preparation thereof and pharmaceutical compositions therefrom” (Chiesi Farmaceutici S.p.A., priority 1983, dated 1989)
# Read-outs that look alike come from different tables or passages of the source.
# Key:
# [1] = Acute toxicity, single oral administration; conditions: mouse, in vivo, read-out: LD50 approx
# Method: The toxicity for single administration has been determined by the oral route in IVa:NMRI (SPF) fasted male mice, with water ad libitum, 18 hours before the experiment.
# [2] = tested on: Carrageenin-induced paw edema in the rat; test: Carrageenin paw edema in the rat; assay type: in vivo; conditions: for % inhibition vs controls, AUC (paw edema): AUC of paw volume against time
# Method: Paw edema was induced in male rats fasted for 18 h but with free access to water, by the method of WINTER et al. (Winter C. A. et al. Proc. Soc. Exp. Biol. Med. 111, 544, 1962) injecting 0.1 ml carrageenin 1% in physiological saline into the right hind paw aponeurosis.
# 60 min before induction of edema the drugs suspended in 0.2% Tween
# 80 aqueous solution were dosed by gastric tube (20 ml/Kg); the controls received the vehicle only.
# The volume of the right paw was measured by plethysmography immediately before (time 0) and 1, 2, 3, 4, 6 h after subplantar injection of the irritant.
# The area under the curve expressing the paw volume plotted against time (AUC) was calculated for each animal.
# The results, expressed as percent inhibition of edema development in treated animals as compared to the controls and as ED40 values obtained from the regression lines for dose-AUC, are reported in Table 2.
# [3] = tested on: phenylquinone writhings in the mouse; test: Phenylquinone writhings in the mouse; assay type: in vivo; conditions: for ED50: Mus musculus, from dose-response curves; for ED50 / % inhibition vs controls (writhings) / No. of writhings (X ± SE): oral
# Method: The method used was that of SIEGMUND et al. (Siegmund et al. J. Pharmacol. Exp. Ther. 119, 184, 1957) modified (Arzneim. Forsch. 31(1), 87, 1981).
# Male mice, 19-22 g, fasted for 18 h with free access to water, received the test drugs suspended in 0.2% Tween 80 aqueous solution (10 ml/Kg) by esophageal tube, the controls receiving the vehicle only.
# One hour later all the animals were given an intraperitoneal injection of 0.02% phenylquinone solution in 5% aqueous ethanol (10 ml/Kg).
# A `blind` observer recorded the number of writhings in each animal from the 5th to the 15th min after phenylquinone administration.
# [4] = Acute effect on gastrointestinal tract: gastric ulcers in the rat; assay type: in vivo; conditions: rat, in vivo, po
# Method: (§1) Male rats weithing 250-280 g were starved for 18 h but allowed free access to water and the drugs were delivered by esophageal tube (suspension in 0.2% Tween 80 aqueous solution, 10 ml/Kg).
# (§2) Control animals received the vehicle only (10 ml/Kg).
# (§3) Five hours after drug administration the rats were killed.
# (§4) The stomach was slit along the lesser curvature, washed under running water and examined for haemorrhagic lesions in the glandular part of the mucosa: these lesions will be conventionally defined as `ulcers`.
# (§5) The following were recorded:
# (§6) (a) the sum of the maximum diameters of all the ulcerated spots;
# (§7) (b) the number of ulcerated spots.
# (§8) The UD50 was calculated by the method of LITCHFIELD and WILCOXON (Litchfield J. T., Wilcoxon F. J. Pharm. Exp. Ther. 96, 99-113, 1949), all animals with gastric lesion whose sum (a) was 2 mm or more being rated as `ulcerated`.
# [5] = tested on: gastric ulcers in the rat; test: as above; assay type: in vivo; conditions: for Potency ratio relative to timegadine: gastric ulcers, UD50; for Gastric ulcers (X ± SE), No. / Gastric ulcers (X ± SE), mm / Rats with gastric ulcers: oral; for Gastric ulcers (X ± SE), No.: number of ulcerated spots; for Gastric ulcers (X ± SE), mm: sum of maximum diameters; for Rats with gastric ulcers: ulceration 2 mm and over
# Method: as §1, §2, §3, §4, §5, §6, §7, §8
# [6] = Determination of the therapeutical index (UD50/ED40); assay type: in vivo, rat; conditions: gastric ulcers UD50 / paw edema ED40
# Method: From the UD50 /ED40 ratio (antiinflammatory activity values obtained from the regression lines for dose--AUC) the therapeutic index were calculated (Table 5).
# [7] = Rattus norvegicus, oral, from regression lines for dose-AUC (Table 2), read-out: ED40
# [8] = restated in Table 5, from regression lines for dose-AUC
structure (smiles),measurement,setting,value
"Cc1cc(/N=C(\Nc2nccs2)NC2CCCCC2)c2ccccc2n1 [timegadine, N-cyclohexyl-N""-4-(2-methylquinolyl)-N'-2-thiazolyl guanidine, reference compound]",LD50,"[1]; oral, single administration, male mice, interpolation on Probits paper",> 1000 mg/kg
same,ED40,[2]; [7],147 µmol/kg
same,"% inhibition vs controls (paw edema), 1 h","[2]; oral, 30 μmol/kg",17%
same,"% inhibition vs controls (paw edema), 2 h","[2]; oral, 30 μmol/kg",18%
same,"% inhibition vs controls (paw edema), 3 h","[2]; oral, 30 μmol/kg",11%
same,"% inhibition vs controls (paw edema), 4 h","[2]; oral, 30 μmol/kg",15%
same,"% inhibition vs controls (paw edema), 6 h","[2]; oral, 30 μmol/kg",4%
same,"% inhibition vs controls, AUC (paw edema)","[2]; oral, 30 μmol/kg",12.3%
same,"% inhibition vs controls (paw edema), 1 h","[2]; oral, 91 μmol/kg",38%
same,"% inhibition vs controls (paw edema), 2 h","[2]; oral, 91 μmol/kg",51%
same,"% inhibition vs controls (paw edema), 3 h","[2]; oral, 91 μmol/kg",30%
same,"% inhibition vs controls (paw edema), 4 h","[2]; oral, 91 μmol/kg",27%
same,"% inhibition vs controls (paw edema), 6 h","[2]; oral, 91 μmol/kg",9%
same,"% inhibition vs controls, AUC (paw edema)","[2]; oral, 91 μmol/kg",28.4%
same,"% inhibition vs controls (paw edema), 1 h","[2]; oral, 274 μmol/kg",33%
same,"% inhibition vs controls (paw edema), 2 h","[2]; oral, 274 μmol/kg",55%
same,"% inhibition vs controls (paw edema), 3 h","[2]; oral, 274 μmol/kg",58%
same,"% inhibition vs controls (paw edema), 4 h","[2]; oral, 274 μmol/kg",57%
same,"% inhibition vs controls (paw edema), 6 h","[2]; oral, 274 μmol/kg",44%
same,"% inhibition vs controls, AUC (paw edema)","[2]; oral, 274 μmol/kg",52.9%
same,ED40,[2]; [8],147 µmol/kg
same,ED50,[3],58.9 µmol/kg
same,% inhibition vs controls (writhings),[3]; 18.3 μmol/Kg,26.1%
same,No. of writhings (X ± SE),[3]; 18.3 μmol/Kg,27.2 ± 4.1
same,% inhibition vs controls (writhings),[3]; 55 μmol/Kg,36.4%
same,No. of writhings (X ± SE),[3]; 55 μmol/Kg,23.4 ± 4.6
same,% inhibition vs controls (writhings),[3]; 164 μmol/Kg,82.1%
same,No. of writhings (X ± SE),[3]; 164 μmol/Kg,6.6 ± 2.9
same,TD50 at 5 h,[4],413 µmol/kg
same,Potency ratio relative to timegadine,[5],1
same,"Gastric ulcers (X ± SE), No.",[5]; 115 μmol/Kg,0.3 ± 0.2
same,"Gastric ulcers (X ± SE), mm",[5]; 115 μmol/Kg,0.4 ± 0.2 mm
same,Rats with gastric ulcers,[5]; 115 μmol/Kg,0/10
same,"Gastric ulcers (X ± SE), No.",[5]; 230 μmol/Kg,0.8 ± 0.3
same,"Gastric ulcers (X ± SE), mm",[5]; 230 μmol/Kg,1.3 ± 0.7 mm
same,Rats with gastric ulcers,[5]; 230 μmol/Kg,2/10
same,"Gastric ulcers (X ± SE), No.",[5]; 461 μmol/Kg,4.4 ± 1.5
same,"Gastric ulcers (X ± SE), mm",[5]; 461 μmol/Kg,6.7 ± 2.3 mm
same,Rats with gastric ulcers,[5]; 461 μmol/Kg,6/10
same,"Gastric ulcers (X ± SE), No.",[5]; 922 μmol/Kg,9.4 ± 1.8
same,"Gastric ulcers (X ± SE), mm",[5]; 922 μmol/Kg,18.5 ± 4.4 mm
same,Rats with gastric ulcers,[5]; 922 μmol/Kg,9/10
same,T.I. (UD50/ED40),[6],2.83
"CSc1cc(NC(=Nc2nccs2)NC2CCCCC2)c2ccccc2n1 [Compound I, N-cyclohexyl-N""-4-(2-methylthioquinolyl)-N'-2-thiazolyl-guanidine]",LD50,[1]; po,> 1000 mg/kg
same,ED40,[2]; [7],111 µmol/kg
same,Potency ratio relative to timegadine,"[2]; carrageenin paw edema, ED40 (Table 2)",1.32
same,antiinflammatory activity compared with timegadine,[2]; in words,higher than those of timegadine
same,"% inhibition vs controls (paw edema), 1 h","[2]; oral, 30 μmol/kg",4%
same,"% inhibition vs controls (paw edema), 2 h","[2]; oral, 30 μmol/kg",47%
same,"% inhibition vs controls (paw edema), 3 h","[2]; oral, 30 μmol/kg",40%
same,"% inhibition vs controls (paw edema), 4 h","[2]; oral, 30 μmol/kg",28%
same,"% inhibition vs controls (paw edema), 6 h","[2]; oral, 30 μmol/kg",8%
same,"% inhibition vs controls, AUC (paw edema)","[2]; oral, 30 μmol/kg",27.9%
same,"% inhibition vs controls (paw edema), 1 h","[2]; oral, 91 μmol/kg",13%
same,"% inhibition vs controls (paw edema), 2 h","[2]; oral, 91 μmol/kg",51%
same,"% inhibition vs controls (paw edema), 3 h","[2]; oral, 91 μmol/kg",48%
same,"% inhibition vs controls (paw edema), 4 h","[2]; oral, 91 μmol/kg",42%
same,"% inhibition vs controls (paw edema), 6 h","[2]; oral, 91 μmol/kg",17%
same,"% inhibition vs controls, AUC (paw edema)","[2]; oral, 91 μmol/kg",37.3%
same,"% inhibition vs controls (paw edema), 1 h","[2]; oral, 274 μmol/kg",17%
same,"% inhibition vs controls (paw edema), 2 h","[2]; oral, 274 μmol/kg",53%
same,"% inhibition vs controls (paw edema), 3 h","[2]; oral, 274 μmol/kg",58%
same,"% inhibition vs controls (paw edema), 4 h","[2]; oral, 274 μmol/kg",56%
same,"% inhibition vs controls (paw edema), 6 h","[2]; oral, 274 μmol/kg",33%
same,"% inhibition vs controls, AUC (paw edema)","[2]; oral, 274 μmol/kg",49.0%
same,ED40,[2]; [8],111 µmol/kg
same,ED50,[3],18.7 µmol/kg
same,analgesic activity compared with timegadine,[3]; in words,higher than those of timegadine
same,% inhibition vs controls (writhings),[3]; 18.3 μmol/Kg,47.0%
same,No. of writhings (X ± SE),[3]; 18.3 μmol/Kg,19.5 ± 4.8
same,% inhibition vs controls (writhings),[3]; 55 μmol/Kg,79.3%
same,No. of writhings (X ± SE),[3]; 55 μmol/Kg,7.6 ± 2.4
same,% inhibition vs controls (writhings),[3]; 164 μmol/Kg,96.5%
same,No. of writhings (X ± SE),[3]; 164 μmol/Kg,1.3 ± 0.5
same,Potency ratio relative to timegadine,"[3]; phenylquinone writhings, ED50",3.1
same,TD50 at 5 h,[4],887 µmol/kg
same,Potency ratio relative to timegadine,[5],0.47
same,gastric irritant potential compared with timegadine,[5]; in words,lesser gastric irritant potential
same,"Gastric ulcers (X ± SE), No.",[5]; 115 μmol/Kg,0.5 ± 0.3
same,"Gastric ulcers (X ± SE), mm",[5]; 115 μmol/Kg,0.5 ± 0.3 mm
same,Rats with gastric ulcers,[5]; 115 μmol/Kg,1/10
same,"Gastric ulcers (X ± SE), No.",[5]; 230 μmol/Kg,0.6 ± 0.3
same,"Gastric ulcers (X ± SE), mm",[5]; 230 μmol/Kg,1.2 ± 0.8 mm
same,Rats with gastric ulcers,[5]; 230 μmol/Kg,1/10
same,"Gastric ulcers (X ± SE), No.",[5]; 461 μmol/Kg,2.1 ± 1.0
same,"Gastric ulcers (X ± SE), mm",[5]; 461 μmol/Kg,3.8 ± 1.8 mm
same,Rats with gastric ulcers,[5]; 461 μmol/Kg,4/10
same,"Gastric ulcers (X ± SE), No.",[5]; 922 μmol/Kg,4.8 ± 1.5
same,"Gastric ulcers (X ± SE), mm",[5]; 922 μmol/Kg,8.7 ± 3.5 mm
same,Rats with gastric ulcers,[5]; 922 μmol/Kg,5/10
same,T.I. (UD50/ED40),[6],7.99
